Experimental findings from US12466841B2, “Substituted pyrrolo[3,4-c]pyridines as HPK1 antagonists” (Nimbus Saturn, Inc., priority 2021, dated 2025) are described below.

pIC50: −log10 of the molar value.

Chain of HPK1 (Q92918 whole entry): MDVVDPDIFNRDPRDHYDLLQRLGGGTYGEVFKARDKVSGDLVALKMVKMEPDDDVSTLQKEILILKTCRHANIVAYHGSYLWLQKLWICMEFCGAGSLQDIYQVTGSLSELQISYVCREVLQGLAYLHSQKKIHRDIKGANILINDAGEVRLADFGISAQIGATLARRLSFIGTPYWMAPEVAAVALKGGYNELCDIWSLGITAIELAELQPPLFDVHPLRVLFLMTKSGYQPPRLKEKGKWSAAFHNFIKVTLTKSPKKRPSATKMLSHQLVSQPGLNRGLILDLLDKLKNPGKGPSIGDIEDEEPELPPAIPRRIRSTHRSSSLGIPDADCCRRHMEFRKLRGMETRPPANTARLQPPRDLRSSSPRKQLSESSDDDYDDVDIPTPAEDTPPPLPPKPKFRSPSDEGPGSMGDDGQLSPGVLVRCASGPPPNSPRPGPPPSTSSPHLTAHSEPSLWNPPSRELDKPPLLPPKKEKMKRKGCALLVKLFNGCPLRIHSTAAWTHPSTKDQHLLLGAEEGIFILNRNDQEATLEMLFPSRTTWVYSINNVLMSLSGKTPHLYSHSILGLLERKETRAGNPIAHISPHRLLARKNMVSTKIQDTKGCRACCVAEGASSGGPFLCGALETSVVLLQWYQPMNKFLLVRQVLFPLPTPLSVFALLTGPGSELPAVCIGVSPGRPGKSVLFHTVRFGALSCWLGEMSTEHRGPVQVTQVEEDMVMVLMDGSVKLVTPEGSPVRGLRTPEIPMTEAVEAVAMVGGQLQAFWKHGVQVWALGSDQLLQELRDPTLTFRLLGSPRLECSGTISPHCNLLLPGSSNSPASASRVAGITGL

The experiment concerns the target HPK1 (Homo sapiens (Human), UniProt Q92918). The experiment is described as follows: HPK1 biochemical enzyme assay (microfluidic mobility shift). The settings on record: 1.5 nM HPK1, ATP 1 mM final, 60 min at RT, Caliper EZ Reader; read-out: HPK1 1000UMATP caliper IC50. On the procedure:
HPK1 biochemical enzyme assay: HPK1 enzyme inhibition was measured using a microfluidic mobility shift assay. Reactions were performed in a 384-well plate, containing 1.5 nM HPK1 (Invitrogen), in assay buffer (Cana Biosciences; pH 7.4). Test compounds were titrated in ten point curves (top final assay concentration 3 μM), and preincubated with enzyme/substrate mix for 30 min prior to initiation of the reaction by addition of ATP (1 mM final concentration) and substrate (1 μM final concentration; Carna Biosciences) diluted in assay buffer supplemented by MgCl2 (final assay concentration of 5 mM). Following 60 min incubation at RT, the reaction was terminated by addition of 60 μl/well termination buffer (Carna Biosciences) and signal determination using a Caliper EZ Reader (Perkin Elmer, UK).
Compounds having an activity designated as “A” provided an IC50≤100 nM; compounds having an activity designated as “B” provided an IC50>100 nM.
As a reminder, the pIC50 is the IC50 on a negative log10 scale, so that one unit is a factor of ten. Regarding `Cn1ccc2c(-c3cnc(Nc4ccc(N5CCC(O)CC5)cc4)c4c3CNC4=O)ccnc21` [Compound I-8, 4-((4-(4-hydroxypiperidin-1-yl)phenyl)amino)-7-(1-methyl-1H-pyrrolo[2,3-b]pyridin-4-yl)-1,2-dihydro-3H-pyrrolo[3,4-c]pyridin-3-one], the pIC50 was not below 7.00.

Regarding `CN(C)Cc1cc(Nc2ncc(-c3cnc4cc(F)ccn34)c3c2C(=O)NC3)ccc1[C@H]1CCOC1` [Compound I-19, (R)-4-((3-((dimethylamino)methyl)-4-(tetrahydrofuran-3-yl)phenyl)amino)-7-(7-fluoroimidazo[1,2-a]pyridin-3-yl)-1,2-dihydro-3H-pyrrolo[3,4-c]pyridin-3-one], the pIC50 is not below 7.00.

For the compound `Cn1ccc2c(-c3cnc(Nc4ccc(N5CCC[C@H](C(C)(C)O)C5)cc4)c4c3CNC4=O)ccnc21` [Compound I-11, (S)-4-((4-(3-(2-hydroxypropan-2-yl)piperidin-1-yl)phenyl)amino)-7-(1-methyl-1H-pyrrolo[2,3-b]pyridin-4-yl)-1,2-dihydro-3H-pyrrolo[3,4-c]pyridin-3-one], the negative-log IC50 (pIC50) is not below 7.00.

Take `Cn1ccc2c(-c3cnc(Nc4ccc(N5CCC(O)CC5)nc4)c4c3CNC4=O)ccnc21` [Compound I-1, 4-((6-(4-hydroxypiperidin-1-yl)pyridin-3-yl)amino)-7-(1-methyl-1H-pyrrolo[2,3-b]pyridin-4-yl)-1,2-dihydro-3H-pyrrolo[3,4-c]pyridin-3-one]: the pIC50 was less than 7.00.

For `CNC1CCN(c2ccc(Nc3ncc(-c4ccncc4)c4c3C(=O)NC4)cc2)CC1` [Compound I-23, 4-((4-(4-(methylamino)piperidin-1-yl)phenyl)amino)-7-(pyridin-4-yl)-1,2-dihydro-3H-pyrrolo[3,4-c]pyridin-3-one], the pIC50 is less than 7.00.

Regarding `CN(C)Cc1cc(Nc2ncc(-c3ccnc4c3ccn4C)c3c2C(=O)NC3)ccc1N1CCOCC1` [Compound I-7, 4-((3-((dimethylamino)methyl)-4-morpholinophenyl)amino)-7-(1-methyl-1H-pyrrolo[2,3-b]pyridin-4-yl)-1,2-dihydro-3H-pyrrolo[3,4-c]pyridin-3-one], the pIC50 was not below 7.00.

For the compound `CN(C)C[C@@H]1CN(c2ccc(Nc3ncc(-c4ccnc5c4ccn5C)c4c3C(=O)NC4)cc2)CCO1` (single isomer, unassigned) [Compound I-17], the pIC50 was not below 7.00.

With `Cn1cncc1-c1cnc(Nc2ccc(N3CCC[C@@H](C(C)(C)O)C3)cc2)c2c1CNC2=O` [Compound I-25, (R)-4-((4-(3-(2-hydroxypropan-2-yl)piperidin-1-yl)phenyl)amino)-7-(1-methyl-1H-imidazol-5-yl)-1,2-dihydro-3H-pyrrolo[3,4-c]pyridin-3-one], the pIC50 was less than 7.00.

Turning to `Cn1ccc2c(-c3cnc(Nc4ccc(S(C)(=O)=O)cc4)c4c3CNC4=O)ccnc21` [Compound I-9, 7-(1-methyl-1H-pyrrolo[2,3-b]pyridin-4-yl)-4-((4-(methylsulfonyl)phenyl)amino)-1,2-dihydro-3H-pyrrolo[3,4-c]pyridin-3-one], the pIC50 was less than 7.00.

As for `O=C1NCc2c(-c3cnc4cc(F)ccn34)cnc(Nc3ccc(N4CCC(O)CC4)cc3)c21` [Compound I-14, 7-(7-fluoroimidazo[1,2-a]pyridin-3-yl)-4-((4-(4-hydroxypiperidin-1-yl)phenyl)amino)-1,2-dihydro-3H-pyrrolo[3,4-c]pyridin-3-one], the pIC50 is less than 7.00.

Consider `CN(C)Cc1cc(Nc2ncc(-c3cnc4cc(F)ccn34)c3c2C(=O)NC3)ccc1[C@@H]1CCOC1` [Compound I-20, (S)-4-((3-((dimethylamino)methyl)-4-(tetrahydrofuran-3-yl)phenyl)amino)-7-(7-fluoroimidazo[1,2-a]pyridin-3-yl)-1,2-dihydro-3H-pyrrolo[3,4-c]pyridin-3-one], for which the pIC50 was less than 7.00.

For the compound “4-((3-((dimethylamino)methyl)-4-(4-hydroxypiperidin-1-yl)phenyl)amino)-7-(1-methyl-1H-pyrrolo[2,3-b]pyridin-4-yl)-1,2-dihydro-3H-pyrrolo[3,4-c]pyridin-3-one [Compound I-21]”, the pIC50 was less than 7.00.

For the compound `Cn1ccc2c(-c3cnc(Nc4ccc(N5CCC(O)CC5)cn4)c4c3CNC4=O)ccnc21` [Compound I-10, 4-((5-(4-hydroxypiperidin-1-yl)pyridin-2-yl)amino)-7-(1-methyl-1H-pyrrolo[2,3-b]pyridin-4-yl)-1,2-dihydro-3H-pyrrolo[3,4-c]pyridin-3-one], the pIC50 was less than 7.00.

With `CC(C)(O)C1CN(c2ccc(Nc3ncc(-c4cnc5cc(F)ccn45)c4c3C(=O)NC4)cc2)CCO1` (centres unmarked) [Compound I-16, 7-(7-fluoroimidazo[1,2-a]pyridin-3-yl)-4-((4-(2-(2-hydroxypropan-2-yl)morpholino)phenyl)amino)-1,2-dihydro-3H-pyrrolo[3,4-c]pyridin-3-one], the negative-log IC50 (pIC50) is not below 7.00.

Regarding `CN(C)Cc1cc(Nc2ncc(-c3cnc4cc(F)ccn34)c3c2C(=O)NC3)ccc1C1CCOCC1` [Compound I-6, 4-((3-((dimethylamino)methyl)-4-(tetrahydro-2H-pyran-4-yl)phenyl)amino)-7-(7-fluoroimidazo[1,2-a]pyridin-3-yl)-1,2-dihydro-3H-pyrrolo[3,4-c]pyridin-3-one], the pIC50 is not below 7.00.

For the compound `Cn1cncc1-c1cnc(Nc2ccc(N3CCNCC3)cc2)c2c1CNC2=O` [Compound I-26, 7-(1-methyl-1H-imidazol-5-yl)-4-((4-(piperazin-1-yl)phenyl)amino)-1,2-dihydro-3H-pyrrolo[3,4-c]pyridin-3-one], the pIC50 was less than 7.00.

With `Cn1ccc2c(-c3cnc(Nc4ccc(N5CCC[C@@H](C(C)(C)O)C5)cc4)c4c3CNC4=O)ccnc21` [Compound I-12, (R)-4-((4-(3-(2-hydroxypropan-2-yl)piperidin-1-yl)phenyl)amino)-7-(1-methyl-1H-pyrrolo[2,3-b]pyridin-4-yl)-1,2-dihydro-3H-pyrrolo[3,4-c]pyridin-3-one], the pIC50 was not below 7.00.

Take `CC(C)(O)[C@H]1CN(c2ccc(Nc3ncc(-c4ccncc4)c4c3C(=O)NC4)cc2)CCO1` [Compound I-28, (R)-4-((4-(2-(2-hydroxypropan-2-yl)morpholino)phenyl)amino)-7-(pyridin-4-yl)-1,2-dihydro-3H-pyrrolo[3,4-c]pyridin-3-one]: the pIC50 was less than 7.00.

For the compound `CN1CCN(c2ccc(Nc3ncc(-c4ccncc4)c4c3C(=O)NC4)cc2)CC1` [Compound I-5, 4-((4-(4-methylpiperazin-1-yl)phenyl)amino)-7-(pyridin-4-yl)-1,2-dihydro-3H-pyrrolo[3,4-c]pyridin-3-one], the pIC50 is less than 7.00.

With `Cc1ccc2c(-c3cnc(Nc4ccc(N5CCC(O)CC5)cc4)c4c3CNC4=O)cnn2c1` [Compound I-13, 4-((4-(4-hydroxypiperidin-1-yl)phenyl)amino)-7-(6-methylpyrazolo[1,5-a]pyridin-3-yl)-1,2-dihydro-3H-pyrrolo[3,4-c]pyridin-3-one], the pIC50 was not below 7.00.

Take `Cn1cncc1-c1cnc(Nc2ccc(N3CCC[C@H](C(C)(C)O)C3)cc2)c2c1CNC2=O` [Compound I-24, (S)-4-((4-(3-(2-hydroxypropan-2-yl)piperidin-1-yl)phenyl)amino)-7-(1-methyl-1H-imidazol-5-yl)-1,2-dihydro-3H-pyrrolo[3,4-c]pyridin-3-one]: the pIC50 was not below 7.00.

On to `CN(C)C[C@H]1CN(c2ccc(Nc3ncc(-c4ccnc5c4ccn5C)c4c3C(=O)NC4)cc2)CCO1` (single isomer, unassigned) [Compound I-18], for which the pIC50 is not below 7.00.

Regarding `CN1CCN(c2ccc(Nc3ncc(-c4cnc5cc(F)ccn45)c4c3C(=O)NC4)cc2)CC1` [Compound I-15, 7-(7-fluoroimidazo[1,2-a]pyridin-3-yl)-4-((4-(4-methylpiperazin-1-yl)phenyl)amino)-1,2-dihydro-3H-pyrrolo[3,4-c]pyridin-3-one], the pIC50 is less than 7.00.

In the case of `COCC1(O)CCN(c2ccc(Nc3ncc(-c4cnc5cc(F)ccn45)c4c3C(=O)NC4)cc2CN(C)C)CC1` [Compound I-22, 4-((3-((dimethylamino)methyl)-4-(4-hydroxy-4-(methoxymethyl)piperidin-1-yl)phenyl)amino)-7-(7-fluoroimidazo[1,2-a]pyridin-3-yl)-1,2-dihydro-3H-pyrrolo[3,4-c]pyridin-3-one], the pIC50 is less than 7.00.

Take `CC(C)(O)C1CN(c2ccc(Nc3ncc(-c4ccncc4)c4c3C(=O)NC4)cc2)CCO1` (centres unmarked) [Compound I-27, 4-((4-(2-(2-hydroxypropan-2-yl)morpholino)phenyl)amino)-7-(pyridin-4-yl)-1,2-dihydro-3H-pyrrolo[3,4-c]pyridin-3-one]: the pIC50 is less than 7.00.

Regarding `CC(C)(O)[C@@H]1CCCN(c2ccc(Nc3ncc(-c4cnc5cc(F)ccn45)c4c3C(=O)NC4)cc2)C1` (single isomer, unassigned) [Compound I-4], the pIC50 was less than 7.00.
